Columns and labels:
Assay in all cases: Confirmation of LPS results by immunoblotting, MDA MB-231 cells
Format in all cases: cell-based, human
Cdc2 = test system: Cdc2
Procedure: (§1) The proteins affected by pentamer, as detected by LPS, were analyzed further by immunoblotting. Antibodies against the following proteins were used: Cdc2 (Tyr15), FKHR (Ser256), p53 (Ser37, Ser46 and Ser392), PKC-δ (Ser643), PKC-θ (Ser643/676), pRb (Ser795 and Ser807/811), SAPK/JNK (Thr183/Tyr185) and Stat 5 (Tyr694) (all antibodies were obtained from Cell Signaling).
(§2) Protein pellets from pentamer-treated MDA MB-231, MDA MB-468 and MCF-7 cells and corresponding DMSO-treated controls were lysed in PBS with 1% SDS and sonicated for 15 seconds at a power of five watts. Samples were then centrifuged at 10,000 rpm and supernatants transferred into clean tubes. Protein concentration was determined as descried above. Ten jig of each protein sample was separated by PAGE on 4-20% gradient gels (BioRad, Philadelphia, Pa.). Gels were either transferred to PVDF membranes (BioRad) or P-FILM membrane (stacks of 10 membranes) according to the manufacturer's instructions (20/20 Gene Systems). PVDF membranes were blocked for 1 hour in 0.5% casein solution (Vector Laboratories, Burlingame, Calif.), prior to incubation with primary antibodies. […] The membranes were incubated overnight at 4° C. in 1:500 dilutions of primary antibodies, washed three times in TBST for five minutes, incubated in HRP-conjugated secondary antibodies, washed again and incubated in ECL Plus Reagent (Amersham). Signals were visualized on BIOMAX MR film (Kodak, Rochester, N.Y.). Following incubation with primary antibodies, membranes were incubated in anti-GAPDH antibody (1:500 dilution; Chemicon, Temecula, Calif.). The presence of this protein was visualized with secondary antibody conjugated to alkaline phosphatase DuoLux substrate (Vector Laboratories).
(§3) As a control, the PVDF membranes probed for Cdc2, FKHR, p53, and pRb were stripped according to manufacturer's instructions (Cell Signaling). After striping, membranes were washed four times for five minutes each in TBST buffer, blocked as described above, washed again and incubated in primary antibodies overnight at 4° C. The primary antibodies used were anti-total Cdc2 (1:1000 dilution, Cell Signaling), anti-total FKHR (1:1000 dilution, Cell Signaling), anti-endogenous p53 (1:1000, Cell Signaling) and anti-endogenous pRb (1:1000, Santa Cruz). The next day, membranes were washed and incubated in HRP conjugated secondary antibodies, washed again and incubated in ECL Plus Reagent (Amersham). Signals were detected as previously described. To test equality of loading, membranes were probed with anti-GAPDH antibody (1:500 dilution; Chemicon, Temecula, Calif.) as described above.

FKHR = test system: FKHR
Procedure: as §1, §2, §3

p53 = test system: p53
Procedure: as §1, §2, §3

pRb = test system: pRb
Procedure: as §1, §2, §3

PKC-δ = conditions: PVDF membranes
Procedure: as §1, §2

PKC-θ = conditions: PVDF membranes
Procedure: as §1, §2

SAPK/JNK = conditions: PVDF membranes
Procedure: as §1, §2

Stat5 = conditions: PVDF membranes
Procedure: as §1, §2

[1] = LPS analysis and PVDF membrane experiments

Q: `Oc1cc(O)c2c(c1)O[C@H](c1ccc(O)c(O)c1)[C@H](O)[C@H]2c1c(O)cc(O)c2c1O[C@H](c1ccc(O)c(O)c1)[C@H](O)[C@H]2c1c(O)cc(O)c2c1O[C@H](c1ccc(O)c(O)c1)[C@H](O)[C@H]2c1c(O)cc(O)c2c1O[C@H](c1ccc(O)c(O)c1)[C@H](O)[C@H]2c1c(O)cc(O)c2c1O[C@H](c1ccc(O)c(O)c1)[C@H](O)C2` [pentamer, pentameric procyanidin] was tested. Which “total protein expression of Cdc2” value (Cdc2; [1]) did it give?
A: not affected

Q: What about the “effect on phosphorylated form of Cdc2 (Tyr15)” value (Cdc2; immunoblot, 48 and 72 hrs) of the same compound?
A: had an effect

Q: What about the “total protein expression of FKHR” value (FKHR; [1]) of the same compound?
A: not affected

Q: And the “effect on phosphorylated form of FKHR (Ser256)” value (FKHR; immunoblot, 48 and 72 hrs)?
A: had an effect

Q: And the “total protein expression of p53” value (p53; [1])?
A: not affected

Q: And the “effect on phosphorylated form of p53 (Ser37, Ser46 and Ser392)” value (p53; immunoblot, 72 hrs)?
A: had an effect

Q: And the “pRb, both total and phospho-specific sites” value (pRb; PVDF membrane reprobed)?
A: affected

Q: And the “effect on phosphorylated form of pRb (Ser795 and Ser807/811)” value (pRb; immunoblot, 48 and 72 hr)?
A: had an effect

Q: What about the “confirmation of LPS result on PKC-δ by immunoblotting” value (PKC-δ) of the same compound?
A: not confirmed

Q: What about the “confirmation of LPS result on PKC-θ by immunoblotting” value (PKC-θ) of the same compound?
A: not confirmed

Q: What about the “confirmation of LPS result on SAPK/JNK by immunoblotting” value (SAPK/JNK) of the same compound?
A: not confirmed

Q: What about the “confirmation of LPS result on Stat5 by immunoblotting” value (Stat5) of the same compound?
A: not confirmed
